Assay [1] deals with T1, Gonadotropin-releasing hormone receptor (Rattus norvegicus, UniProt P30969).
T1 sequence (P30969 whole entry): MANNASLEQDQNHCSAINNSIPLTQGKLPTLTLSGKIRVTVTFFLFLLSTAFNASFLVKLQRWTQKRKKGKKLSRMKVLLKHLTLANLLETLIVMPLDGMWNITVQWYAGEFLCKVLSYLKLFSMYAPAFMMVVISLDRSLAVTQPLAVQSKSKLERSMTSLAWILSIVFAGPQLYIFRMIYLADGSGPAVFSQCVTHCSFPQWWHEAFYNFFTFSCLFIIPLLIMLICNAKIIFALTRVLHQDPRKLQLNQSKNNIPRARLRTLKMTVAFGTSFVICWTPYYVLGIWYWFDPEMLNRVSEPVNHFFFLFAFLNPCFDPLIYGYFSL
Put plainly: Inhibition of rat gonadotropin-releasing hormone receptor.

The target of assay [2] is T2, Gonadotropin-releasing hormone receptor (Homo sapiens, UniProt P30968).
T2 sequence (P30968 whole entry): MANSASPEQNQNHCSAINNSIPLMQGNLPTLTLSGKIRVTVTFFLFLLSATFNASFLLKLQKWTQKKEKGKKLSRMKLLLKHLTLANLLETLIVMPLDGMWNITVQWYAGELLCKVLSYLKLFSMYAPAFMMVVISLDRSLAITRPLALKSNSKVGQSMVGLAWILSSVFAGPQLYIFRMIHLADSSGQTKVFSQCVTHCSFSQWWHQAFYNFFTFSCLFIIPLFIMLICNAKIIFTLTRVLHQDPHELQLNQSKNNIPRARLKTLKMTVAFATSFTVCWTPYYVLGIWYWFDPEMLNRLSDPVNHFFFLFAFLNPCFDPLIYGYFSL
Briefly: Inhibitory activity evaluated against human Gonadotropin-releasing hormone receptor.

Molecules are shown by their SMILES. pIC50: −log10 of the molar value.

As for `Cc1cc(C)cc(-c2[nH]c3ccccc3c2CCNCCCCc2ccc(O)cc2)c1`, the results for the negative logarithm of the IC50 (pIC50) in assay [1] and in assay [2] were 7.57 and 6.45, respectively.
On to `Cc1cc(C)cc(-c2[nH]c3ccccc3c2CCNCCCCc2ccncc2)c1`, for which the pIC50 (usually the IC50 on a negative log10 scale, so that one unit is a factor of ten) in assay [1] is 7.80.
`Cc1cc(C)cc(-c2[nH]c3ccccc3c2CCNCCCCc2cnc3ccccc3c2)c1` showed a pIC50 in assay [1] of 7.44.
The compound `Cc1cc(C)cc(-c2[nH]c3ccccc3c2CCNCCCc2cccnc2)c1` showed a pIC50 in assay [1] of 6.70.
The same measure, in the same setting: the same measure for `Cc1cc(C)cc(-c2[nH]c3ccccc3c2CCNCCCCc2ccccn2)c1`: 6.35.
The compound `Cc1cc(C)cc(-c2[nH]c3ccccc3c2CCNCCCCc2ccc(N)nc2)c1` showed a negative logarithm of the IC50 (pIC50) in assay [1] of 7.39.
For the compound `Cc1cc(C)cc(-c2[nH]c3ccccc3c2CCNCc2ccncc2)c1`, the negative logarithm of the IC50 (pIC50) in assay [1] is 5.05.
Consider `Cc1cc(C)cc(-c2[nH]c3ccccc3c2CCNCCCCc2ccc(NS(C)(=O)=O)cc2)c1`, for which the pIC50 in assay [1] is 8.15; in assay [2] it was 6.77.
In assay [1], `Cc1cc(C)cc(-c2[nH]c3ccccc3c2CCNCCCCCc2cccnc2)c1` had a negative logarithm of the IC50 (pIC50) of 7.30.
Compound `CC(=O)Nc1ccc(CCCCNCCc2c(-c3cc(C)cc(C)c3)[nH]c3ccccc23)cn1` had a negative-log IC50 (pIC50) in assay [1] of 6.92.
Still for that read-out and setting: with `COc1ccc(CCCCNCCc2c(-c3cc(C)cc(C)c3)[nH]c3ccccc23)cn1` the figure was 7.05; with `Cc1cc(C)cc(-c2[nH]c3ccccc3c2CCNCCCCc2cnc[nH]2)c1`, 6.35; with `Cc1cc(C)cc(-c2[nH]c3ccccc3c2CCNCCCCCc2ccncc2)c1`, 6.82.
`Cc1cc(C)cc(-c2[nH]c3ccccc3c2CCNCCc2cccnc2)c1` gave a negative logarithm of the IC50 (pIC50) in assay [1] of 6.70.
`Cc1cc(C)cc(-c2[nH]c3ccccc3c2CCNCc2cccnc2)c1` showed a negative logarithm of the IC50 (pIC50) in assay [1] of 5.35.
With `Cc1cc(C)cc(-c2[nH]c3ccccc3c2CCNCCCCc2ccc3c(n2)NCCC3)c1`, the negative-log IC50 (pIC50) in assay [1] was 5.90.
Still for that read-out and setting: with `Cc1cc(C)cc(-c2[nH]c3ccccc3c2CCNCCCCc2cccnc2)c1` the figure was 7.40; with `Cc1cc(C)cc(-c2[nH]c3ccccc3c2CCNCCCCc2ccc(=O)[nH]c2)c1`, 7.24; with `Cc1cc(C)cc(-c2[nH]c3ccccc3c2CCNCCc2ccccn2)c1`, 5.66.
Same read-out and setting: with `Cc1cc(C)cc(-c2[nH]c3ccccc3c2CCNCCCCc2ccc(NS(C)(=O)=O)nc2)c1` the figure was 7.35.
Compound `Cc1cc(C)cc(-c2[nH]c3ccccc3c2CCNCCCc2ccncc2)c1` had a pIC50 in assay [1] of 6.68. Against the preceding compound, the pIC50 is 0.67 log units lower.
The compound `Cc1cc(C)cc(-c2[nH]c3ccccc3c2CCNCc2ccccn2)c1` showed a negative logarithm of the IC50 (pIC50) in assay [1] of less than 5.00.
Same read-out and setting: the same measure for `Cc1cc(C)cc(-c2[nH]c3ccccc3c2CCNCCc2ccncc2)c1`: 6.80; for `Cc1cc(C)cc(-c2[nH]c3ccccc3c2CCNCCCCc2cncnc2)c1`: 6.57.

Values taken from ChEMBL document CHEMBL1134029, “Heterocyclic derivatives of 2-(3,5-dimethylphenyl)tryptamine as GnRH receptor antagonists” (Bioorg Med Chem Lett, 2001).
